Measured values taken from patent publication US20230310393A1 (Tianjin Creatron Biotechnology Co., Ltd., priority 2020, published 2023).
Values after ≈ are worked out from the molar mass of the structure shown. Like-named read-outs stand apart in the source and are kept apart here.

Columns and labels:
[1] = cited from earlier work
[2] = Stability of solid dispersions at high temperature of 60° C. (related substances by HPLC); type: physicochemical
Protocol: The SD prepared above was sealed in an aluminum foil bag, placed in a high temperature of 60° C. for investigation for 10 days and 30 days, and related substances were detected by HPLC method.

[3] = Solubility test of solid dispersions (pH 1.0 hydrochloric acid, pH 6.8 phosphate buffer, FaSSGF, FaSSIF); type: physicochemical; details: main drug:carrier 1:3; for Solubility: pH 1.0 hydrochloric acid solution, 37° C., listed as SLFN
Protocol: An appropriate amount of solid dispersion (SD) was added to a pH 1.0 hydrochloric acid solution and a pH 6.8 phosphate buffer solution, while keeping the SD in excess, and shaken at 37° C. in a shaker at 300 rpm.

[4] = Solubility of sorafenib in different organic solvents; type: physicochemical; details: for solubility at 30 min / solubility at 24 h: organic solvent, 37 °C, organic solvent or mixture, thermodynamic from solid
[5] = healthy volunteer, oral 100 mg 14C radiolabeled sorafenib; cited from earlier work
[6] = Stability of sorafenib in different organic solvents (related substances by HPLC); type: physicochemical
[7] = renal cell carcinoma patients; cited from earlier work
[8] = acetone-ethanol 1:2, standing 30 min
[9] = acetone-ethanol 1:2, standing 24 h
[10] = dichloromethane-acetone 3:1, standing 30 min
[11] = dichloromethane-acetone 3:1, standing 24 h
[12] = methanol-dichloromethane 1:2, standing 30 min
[13] = methanol-dichloromethane 1:2, standing 24 h
[14] = methanol-dichloromethane 1:3, standing 30 min
[15] = methanol-dichloromethane 1:3, standing 24 h
[16] = methanol-dichloromethane 1:4, standing 30 min
[17] = methanol-dichloromethane 1:4, standing 24 h

Related substances: CTF-aniline ([2]; 0 day): Not detected | Related substances: Maximum single impurity ([2]; 0 day): 0.03% | Related substances: Total impurity ([2]; 0 day): 0.09% | Related substances: CTF-aniline ([2]; 10 days): Not detected | Related substances: Maximum single impurity ([2]; 10 days): 0.04% | Related substances: Total impurity ([2]; 10 days): 0.10% | Related substances: CTF-aniline ([2]; 30 days): Not detected | Related substances: Maximum single impurity ([2]; 30 days): 0.05% | Related substances: Total impurity ([2]; 30 days): 0.10% | Solubility ([3]; 0.5 h): <0.09 µg/mL | Solubility ([3]; 2 h): <0.09 µg/mL | Solubility ([3]; 4 h): <0.09 µg/mL | solubility at 0.5 h ([3]; phosphate buffer, 37 °C, pH 6.8, aqueous buffer, thermodynamic from solid, pH 6.8 phosphate buffer solution, 0.5 h): < 0.09 µg/mL | solubility at 2 h ([3]; phosphate buffer, 37 °C, pH 6.8, aqueous buffer, thermodynamic from solid, pH 6.8 phosphate buffer solution, 2 h): < 0.09 µg/mL | solubility at 4 h ([3]; phosphate buffer, 37 °C, pH 6.8, aqueous buffer, thermodynamic from solid, pH 6.8 phosphate buffer solution, 4 h): < 0.09 µg/mL | Solubility ([4]; acetone-ethanol 1:2, 30 min, 37° C.): 18.51 mg/mL (≈ 39.8 mM) | Solubility ([4]; acetone-ethanol 1:2, 24 h, 37° C.): 18.48 mg/mL (≈ 39.8 mM) | Solubility (visual inspection) ([4]; acetone-ethanol 1:3 and 1:5, 30 min): Less API dissolved by visual | Solubility (visual inspection) ([4]; dichloromethane-acetone 1:1 and 2:1, 30 min): Less API dissolved by visual | Solubility ([4]; methanol-dichloromethane 1:1, 30 min, 37° C.): 14.28 mg/mL (≈ 30.7 mM) | solubility at 30 min ([4]; dichloromethane-acetone 3:1, 30 min, 37° C.): 3.6 mg/mL (≈ 7.74 mM) | solubility at 24 h ([4]; dichloromethane-acetone 3:1, 24 h, 37° C.): 4.04 mg/mL (≈ 8.69 mM) | solubility at 30 min ([4]; isopropanol, 30 min): 2.91 mg/mL (≈ 6.26 mM) | solubility at 24 h ([4]; isopropanol, 24 h): 2.81 mg/mL (≈ 6.05 mM) | solubility at 30 min ([4]; methanol-dichloromethane 1:0.5 (v/v), 30 min, 37° C.): 8.34 mg/mL (≈ 17.9 mM) | solubility at 24 h ([4]; methanol-dichloromethane 1:0.5 (v/v), 24 h, 37° C.): 19.2 mg/mL (≈ 41.2 mM) | solubility at 24 h ([4]; methanol-dichloromethane 1:1, 24 h, 37° C.): 24.2 mg/mL (≈ 52.1 mM) | solubility at 30 min ([4]; methanol-dichloromethane 1:2, 30 min, 37° C.): 20.9 mg/mL (≈ 45 mM) | solubility at 24 h ([4]; methanol-dichloromethane 1:2, 24 h, 37° C.): 36.2 mg/mL (≈ 77.8 mM) | solubility at 30 min ([4]; methanol-dichloromethane 1:3, 30 min, 37° C.): 36.4 mg/mL (≈ 78.2 mM) | solubility at 24 h ([4]; methanol-dichloromethane 1:3, 24 h, 37° C.): 36.4 mg/mL (≈ 78.4 mM) | solubility at 30 min ([4]; methanol-dichloromethane 1:4, 30 min, 37° C.): 31.3 mg/mL (≈ 67.4 mM) | solubility at 24 h ([4]; methanol-dichloromethane 1:4, 24 h, 37° C.): 36.3 mg/mL (≈ 78.1 mM) | Related substances RRT 0.08 ([6]; API, no solvent): 0.008% | Related substances RRT 0.30 ([6]; API, no solvent): 0.029% | Related substances RRT 0.40 ([6]; API, no solvent): 0.006% | Related substances RRT 0.55 ([6]; API, no solvent): 0.028% | Related substances RRT 0.92 ([6]; API, no solvent): 0.054% | Related substances RRT 1.00 ([6]; API, no solvent): 99.864% | Related substances RRT 0.05 [6, 8]: 4.314% | Related substances RRT 0.08 [6, 8]: 0.011% | Related substances RRT 0.30 [6, 8]: 0.029% | Related substances RRT 0.40 [6, 8]: 0.008% | Related substances RRT 0.55 [6, 8]: 0.025% | Related substances RRT 0.92 [6, 8]: 0.047% | Related substances RRT 1.00 [6, 8]: 95.562% | Related substances RRT 0.05 [6, 9]: 3.946% | Related substances RRT 0.08 [6, 9]: 0.010% | Related substances RRT 0.30 [6, 9]: 0.033% | Related substances RRT 0.40 [6, 9]: 0.007% | Related substances RRT 0.55 [6, 9]: 0.020% | Related substances RRT 0.92 [6, 9]: 0.035% | Related substances RRT 1.00 [6, 9]: 95.893% | Related substances RRT 0.05 [6, 10]: 12.979% | Related substances RRT 0.08 [6, 10]: 2.491% | Related substances RRT 0.30 [6, 10]: 0.020% | Related substances RRT 0.35 [6, 10]: 0.282% | Related substances RRT 0.92 [6, 10]: 0.039% | Related substances RRT 1.00 [6, 10]: 84.196% | Related substances RRT 0.05 [6, 11]: 14.191% | Related substances RRT 1.00 [6, 11]: 85.157% | Related substances RRT 0.03 ([6]; isopropanol, standing 30 min): 0.161% | Related substances RRT 1.00 ([6]; isopropanol, standing 30 min): 99.839% | Related substances RRT 1.00 ([6]; isopropanol, standing 24 h): 99.365% | Related substances RRT 0.08 [6, 12]: 0.011% | Related substances RRT 0.30 [6, 12]: 0.030% | Related substances RRT 0.40 [6, 12]: 0.008% | Related substances RRT 0.55 [6, 12]: 0.031% | Related substances RRT 0.92 [6, 12]: 0.037% | Related substances RRT 1.00 [6, 12]: 99.870% | Related substances RRT 0.08 [6, 13]: 0.013% | Related substances RRT 0.30 [6, 13]: 0.035% | Related substances RRT 0.40 [6, 13]: 0.009% | Related substances RRT 0.55 [6, 13]: 0.028% | Related substances RRT 0.92 [6, 13]: 0.049% | Related substances RRT 1.00 [6, 13]: 99.853% | Related substances RRT 0.08 [6, 14]: 0.015% | Related substances RRT 0.30 [6, 14]: 0.029% | Related substances RRT 0.40 [6, 14]: 0.006% | Related substances RRT 0.55 [6, 14]: 0.026% | Related substances RRT 0.92 [6, 14]: 0.050% | Related substances RRT 1.00 [6, 14]: 99.861% | Related substances RRT 0.08 [6, 15]: 0.012% | Related substances RRT 0.30 [6, 15]: 0.035% | Related substances RRT 0.40 [6, 15]: 0.009% | Related substances RRT 0.55 [6, 15]: 0.025% | Related substances RRT 0.92 [6, 15]: 0.037% | Related substances RRT 1.00 [6, 15]: 99.872% | Related substances RRT 0.08 [6, 16]: 0.013% | Related substances RRT 0.30 [6, 16]: 0.028% | Related substances RRT 0.40 [6, 16]: 0.007% | Related substances RRT 0.55 [6, 16]: 0.024% | Related substances RRT 0.92 [6, 16]: 0.034% | Related substances RRT 1.00 [6, 16]: 99.884% | Related substances RRT 0.08 [6, 17]: 0.013% | Related substances RRT 0.30 [6, 17]: 0.028% | Related substances RRT 0.40 [6, 17]: 0.008% | Related substances RRT 0.55 [6, 17]: 0.032% | Related substances RRT 0.92 [6, 17]: 0.045% | Related substances RRT 1.00 [6, 17]: 99.862%
SMILES: CNC(=O)c1cc(Oc2ccc(NC(=O)Nc3ccc(Cl)c(C(F)(F)F)c3)cc2)ccn1 [sorafenib, 4-{4-[3-(4-chloro-3-trifluoromethyl-phenyl)acylurea]-phenoxy}-pyridine-2-carboxylic acid methylamine]
Solubility ([1]; pH1): 0.0034 mg/mL (≈ 0.00731 mM) | Solubility ([1]; pH4.5): 0.00013 mg/mL (≈ 0.00028 mM) | administered dose excreted through feces [5]: 77% | prototype drug excreted through feces [5]: above 51% | change in related substances ([6]; methanol-dichloromethane (1:3), 30 min and 24 h): no significant change in related substances | blood concentration of patients with serious adverse reactions [7]: more than 10,000 ng/ml | incidence of diarrhea [7]: 76.5% | incidence of fatigue [7]: 55.32% | incidence of hand-foot syndrome [7]: 68.99%
